{
  "source": "paper PMC7175277",
  "about": "“Hydroxylamine Analogue of Agmatine: Magic Bullet for Arginine Decarboxylase” (Biomolecules, 2020)",
  "key": {"[1]": {"molecular_target": "T1, E. coli ADC (Escherichia coli, UniProt P21170)", "T1 construct": "The kinetic parameters determined for the partially purified biosynthetic ADC from E. coli; endogenous in cells; host or cells: E. coli DH5α (39-53% ammonium sulphate fraction of the lysate, desalted)", "T1 sequence (P21170 1-658)": "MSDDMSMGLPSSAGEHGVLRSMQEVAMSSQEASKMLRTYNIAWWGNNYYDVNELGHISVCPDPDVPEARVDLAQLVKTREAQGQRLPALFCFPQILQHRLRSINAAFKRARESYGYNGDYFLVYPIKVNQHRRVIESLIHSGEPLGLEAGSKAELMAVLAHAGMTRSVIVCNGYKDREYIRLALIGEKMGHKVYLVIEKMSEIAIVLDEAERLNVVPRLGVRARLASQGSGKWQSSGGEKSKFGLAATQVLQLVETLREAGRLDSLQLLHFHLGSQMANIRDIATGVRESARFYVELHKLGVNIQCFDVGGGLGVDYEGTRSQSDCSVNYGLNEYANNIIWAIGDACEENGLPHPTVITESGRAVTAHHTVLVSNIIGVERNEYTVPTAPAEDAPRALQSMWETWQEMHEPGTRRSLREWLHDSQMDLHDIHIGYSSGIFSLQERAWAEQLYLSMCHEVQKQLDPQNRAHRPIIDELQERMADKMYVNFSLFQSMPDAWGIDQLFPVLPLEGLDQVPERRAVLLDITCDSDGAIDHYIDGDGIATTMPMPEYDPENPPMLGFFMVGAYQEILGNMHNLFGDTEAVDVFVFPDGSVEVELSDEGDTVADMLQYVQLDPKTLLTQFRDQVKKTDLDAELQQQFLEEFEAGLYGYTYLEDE", "parameters": "method as in PMID 4571773", "conditions": "cited from earlier work"}, "[2]": {"molecular_target": "T1, E. coli ADC", "experiment": "E. coli ADC activity assay (HPLC of agmatine)", "type": "biochemical", "conditions": "0.1 mM PLP; 15 min preincubation; 0.15 mM L-Arg", "procedure": "The purification was performed using a modified procedure of earlier publication. E. coli strain DH5α was grown in Luria-Bertani broth at +37 °C with shaking (200 rpm) overnight. The cells were collected by centrifugation and the pellet was homogenized with Potter-Elvehjem in 10 volumes (w/v) of ice-cold 50 mM Tris-HCl pH 7.4, 1 mM DTT. The cell debris was removed by centrifugation at 12,000 g for 30 min at +4 °C. Solid (NH4)2SO4 was added to the supernatant, and the pellet precipitating between 39% and 53% saturation was separated. The precipitate was resuspended in ice-cold buffer containing 50 mM Tris-HCl pH 7.4 and 1 mM DTT and desalted by passage through Sephadex G-25 column (NAP-10 column, GE Healthcare). The protein concentration was measured with Bio-Rad protein reagent, and the partially purified enzyme preparation was mixed with 20% glycerol and aliquoted for storage at −80 °C.\n[…] The ODC reaction mixture contained 50 mM Tris-HCl pH 7.8, 1 mM EDTA, 2.4 mM DTT, 0.1 mM PLP and 20 μg of partially purified enzyme preparation. The mixtures were either preincubated or not preincubated for 15 min at +40 °C in the presence of the inhibitor, after which the reaction was started by the addition of 18 μL of 10× substrate (L-Arg for ADC and L-Orn for ODC). After incubation for 30 min (ADC) or 20 min (ODC) at +40 °C, 20 μL of 50% sulphosalicylic acid containing 50 μM diaminoheptane (internal standard) was added and the samples were analyzed for the content of agmatine (ADC) and Put (ODC) with HPLC as described previously. The kinetic parameters and IC50 values were determined with the aid of GraphPad Prism version 5.03 using nonlinear regression analysis."}, "[3]": {"system": "Acremonium chrysogenum high-cephalosporin-yielding (HY) RNCM F-4081D", "experiment": "Fungal growth inhibition (drop-dilution, CD agar), HY strain", "type": "cell-based", "conditions": "Hapsidospora chrysogena, 336 h, read-out: Growth inhibition", "from_the_text": "(§1) Two strains of Acremonium chrysogenum were used in this study: the wild-type (Brotzu) isolate ATCC 11550 (WT) and high-cephalosporin-yielding RNCM F-4081D (HY), derived from the WT [37]. The cultivation conditions were the same as previously described. The filamentous fungi were cultivated on agarized Czapek-Dox (CD) medium (30 g/L sucrose, 2 g/L NaNO3, 1 g/L K2HPO4, 0.5 g/L MgSO4×7 H2O, 0.5 g/L KCl, 0.01 g/L FeSO4×7 H2O, 20 g/L agar, pH 7.0–7.4). To determine the toxic effect of AO-Agm, APA, DFMA and DFMO on the growth of fungal cells the drop-dilution method was used with some modifications as described earlier. Cells were collected from agar slants and diluted with 0.9% NaCl solution up to OD600 = 0.5 (basic concentration), followed by serial tenfold dilutions with the same solution. […] The inoculated Petri dishes were incubated for 21 days at 26 °C. The inhibitory effects of the compounds were measured every three days after inoculation and evaluated by measuring the ratio of colony growth on agarized CD medium supplemented with AO-Agm, APA, DFMA, or DFMO to the growth in the control (agarized CD medium without any additions). The formula: growth inhibition % = [(Dc − Dt)/Dc] × 100, where Dc indicates the colony diameter in control set, and Dt indicates the colony diameter in the treatment set that was used to determine the percent of fungal growth inhibition. The data recorded were measured in triplicate and repeated at least twice."}, "[4]": {"system": "Acremonium chrysogenum wild-type (WT) ATCC 11550", "experiment": "Fungal growth inhibition (drop-dilution, CD agar), WT strain", "type": "cell-based", "conditions": "Hapsidospora chrysogena, ATCC11550, 336 h, 5 mM inhibitor, 14 days after inoculation on CD medium", "from_the_text": "as §1"}, "[5]": {"molecular_target": "T2, mouse kidney ODC (Mus musculus, UniProt P00860)", "T2 construct": "Aliquots of the supernatant were mixed with 1–5000 μM of AO-Agm and the ODC assay was carried out; from tissue; host or cells: C57Bl/6J male mouse kidney, 12,000 g supernatant of the homogenate", "T2 sequence (P00860 1-461)": "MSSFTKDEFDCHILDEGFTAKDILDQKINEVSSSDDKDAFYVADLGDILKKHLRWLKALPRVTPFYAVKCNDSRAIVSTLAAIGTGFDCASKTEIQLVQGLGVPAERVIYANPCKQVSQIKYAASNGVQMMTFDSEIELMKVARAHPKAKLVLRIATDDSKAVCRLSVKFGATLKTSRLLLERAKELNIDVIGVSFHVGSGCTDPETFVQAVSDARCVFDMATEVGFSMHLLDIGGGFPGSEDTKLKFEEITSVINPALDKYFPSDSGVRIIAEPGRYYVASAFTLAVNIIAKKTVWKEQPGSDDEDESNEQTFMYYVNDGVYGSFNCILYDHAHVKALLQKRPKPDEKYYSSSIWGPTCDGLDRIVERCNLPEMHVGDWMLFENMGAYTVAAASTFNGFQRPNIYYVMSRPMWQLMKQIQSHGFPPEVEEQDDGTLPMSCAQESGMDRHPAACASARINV", "parameters": "method as in PMID 6810923", "conditions": "reversibly bound PLP; cited from earlier work"}},
  "note": "Read-outs that look alike come from different tables or passages of the source.",
  "data": [
    {"compound": "N=C(N)NCCC[C@H](N)C(=O)O", "note": "[L-Arg, L-arginine]", "values": [
      {"measurement": "Km", "setting": "[1]; pH 8.4", "value": 30, "unit": "µM"}
    ]},
    {"compound": "N=C(N)NCCCC(N)(C(=O)O)C(F)F", "note": "(racemic) [DFMA, D,L-α-(difluoromethyl)arginine]", "values": [
      {"measurement": "IC50", "setting": "[2]", "value": "10 ± 1", "unit": "µM"},
      {"measurement": "inhibition at 5000 µM", "setting": "[3]", "value": 13, "unit": "%"},
      {"measurement": "inhibition at 5000 µM", "setting": "[4]", "value": 7, "unit": "%"}
    ]},
    {"compound": "Cc1ncc(COP(=O)(O)O)c(C=O)c1O", "note": "[PLP, pyridoxal-5’-phosphate]", "values": [
      {"measurement": "Km", "setting": "[5]", "value": 0.3, "unit": "µM"},
      {"measurement": "Km", "setting": "[1]; PLP binding to the apo-enzyme", "value": 0.6, "unit": "µM"}
    ]}
  ]
}
